Here are results for ten compounds from ChEMBL document CHEMBL1201862, “PubChem BioAssay data set” (2004).

The source made the active and inactive calls.

Series [1] addresses T1, Cytochrome P450 2C9 (Homo sapiens, UniProt P11712).
Series [2] in a line: decrease of insulin promoter-GFP reporter – imaging, high-content screening, mouse beta cells (AID 1628). To be noted: MIN6. In kind it is functional.
Series [3] in a line: MIN6 cell viability loss – mouse insulinoma, cytotoxicity control, dose response (AID 2122).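 Also: confirmatory high-throughput counterscreen run to flag cytotoxic compounds.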 Type of series: functional.
Series [4] deals with T2, Cannabinoid receptor 1 (Homo sapiens, UniProt P21554). Description: SAR analysis of antagonists of the Cannabinoid Receptor 1 using an Image-Based Assay - Set 2. [Related pubchem assays (depositor defined):AID2013, AID2026]. In kind it is functional.
T2 sequence (P21554 whole entry): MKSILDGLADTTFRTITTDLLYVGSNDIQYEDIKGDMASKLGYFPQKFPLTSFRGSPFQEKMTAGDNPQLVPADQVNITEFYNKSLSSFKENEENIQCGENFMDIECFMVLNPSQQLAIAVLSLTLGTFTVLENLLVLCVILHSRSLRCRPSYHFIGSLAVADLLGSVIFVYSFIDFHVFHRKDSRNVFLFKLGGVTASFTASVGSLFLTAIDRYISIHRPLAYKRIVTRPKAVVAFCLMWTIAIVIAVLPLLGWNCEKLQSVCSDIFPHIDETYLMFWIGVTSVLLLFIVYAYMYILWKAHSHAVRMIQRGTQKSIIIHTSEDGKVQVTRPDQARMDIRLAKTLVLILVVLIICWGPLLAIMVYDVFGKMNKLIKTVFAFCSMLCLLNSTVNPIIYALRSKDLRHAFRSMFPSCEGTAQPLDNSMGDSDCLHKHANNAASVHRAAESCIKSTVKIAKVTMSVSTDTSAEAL
Series [5] addresses T3, G-protein coupled receptor 35 (Homo sapiens, UniProt Q9HC97). Description: SAR analysis of Agonists of the GPR35 Receptor using an Image-Based Assay - Set 2. [Related pubchem assays (depositor defined):AID2013, AID2026]. Type of series: functional.
In series [6] the target is G-protein coupled receptor 55 (Homo sapiens, UniProt Q9Y2T6). Description: inhibition of LPI-stimulated GPR55 beta-arrestin translocation – imaging, U2OS, beta-arrestin-GFP, LPI agonist, primary screen (AID 2013).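 Also: antagonist potency measured as reduced agonist-driven arrestin aggregation.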 In kind it is functional.
Series [7] addresses T3, G-protein coupled receptor 35. Description: SAR analysis of Antagonists of the GPR35 Receptor using an Image-Based Assay - Set 3. [Related pubchem assays (depositor defined):AID2013, AID2026]. In kind it is functional.
Series [8] addresses T2, Cannabinoid receptor 1. Description: SAR analysis of agonists of the Cannabinoid Receptor 1 using an Image-Based Assay - Set 2. [Related pubchem assays (depositor defined):AID2013, AID2026]. In kind it is functional.
In series [9] the target is T4, Cannabinoid receptor 2 (Homo sapiens, UniProt P34972). Description: SAR analysis of antagonists of the Cannabinoid Receptor 2 using an Image-Based Assay. [Related pubchem assays (depositor defined):AID2013, AID2026]. In kind it is functional.
T4 sequence (P34972 whole entry): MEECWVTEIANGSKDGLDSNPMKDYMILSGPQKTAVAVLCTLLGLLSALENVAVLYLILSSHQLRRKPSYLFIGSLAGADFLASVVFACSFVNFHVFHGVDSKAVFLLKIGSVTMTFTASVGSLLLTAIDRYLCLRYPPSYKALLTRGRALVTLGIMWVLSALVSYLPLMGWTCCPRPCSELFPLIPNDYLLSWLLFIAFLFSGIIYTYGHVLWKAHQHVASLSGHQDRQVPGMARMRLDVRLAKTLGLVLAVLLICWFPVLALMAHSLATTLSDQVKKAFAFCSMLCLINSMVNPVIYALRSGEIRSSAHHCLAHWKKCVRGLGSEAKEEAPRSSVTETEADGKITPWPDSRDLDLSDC
Series [10] deals with T4, Cannabinoid receptor 2. Description: SAR analysis of agonists of the Cannabinoid Receptor 2 using an Image-Based Assay. [Related pubchem assays (depositor defined):AID2013, AID2026]. Type of series: functional.
A short description of series [11]: A cytotoxicity screen of small molecule inhibitors of the PhoP region in Salmonella typhi identified in the primary screen. [Related pubchem assays: 1850, 1864, 1985 ]. In kind it is functional.
Series [12] is described as follows: restored growth of temperature-sensitive Burl-1 yeast – whole organism, S. cerevisiae, Burl-1 ts mutant, luminescence, counter-screen for SUMOylation pathway inhibitor project, dose response (AID 463199). In kind it is functional.
Series [13] addresses T1, Cytochrome P450 2C9. The source holds these as a separate data set.
In series [14] the target is T5, Cytochrome P450 1A2 (Homo sapiens, UniProt P05177).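 Also: PubChem cytochrome P450 panel assay, CYP1A2 panel member.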
T5 sequence (P05177 whole entry): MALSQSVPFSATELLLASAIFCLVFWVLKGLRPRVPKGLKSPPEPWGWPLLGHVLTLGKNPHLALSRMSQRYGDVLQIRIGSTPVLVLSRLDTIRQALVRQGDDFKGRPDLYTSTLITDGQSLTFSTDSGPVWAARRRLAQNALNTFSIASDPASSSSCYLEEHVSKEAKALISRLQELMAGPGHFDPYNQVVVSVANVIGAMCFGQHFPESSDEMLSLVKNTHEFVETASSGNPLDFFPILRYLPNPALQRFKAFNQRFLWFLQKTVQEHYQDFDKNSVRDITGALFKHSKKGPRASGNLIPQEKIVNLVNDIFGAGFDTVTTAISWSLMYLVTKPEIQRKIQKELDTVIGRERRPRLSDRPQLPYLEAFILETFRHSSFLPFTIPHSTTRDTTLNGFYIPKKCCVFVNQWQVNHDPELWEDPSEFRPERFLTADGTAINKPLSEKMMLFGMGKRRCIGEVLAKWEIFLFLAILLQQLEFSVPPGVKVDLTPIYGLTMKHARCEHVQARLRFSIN

Series [15] concerns the target Cytochrome P450 2C19 (Homo sapiens, UniProt P33261). Description: Cytochrome panel assay with activity outcomes. Panel member name: p450-cyp2c19 Compounds with AC50 equal or less than 10 uM are considered active. In kind it is functional. To be noted: read-out: AC50.
Series [16] deals with Cytochrome P450 2D6 (Homo sapiens, UniProt P10635).
The target of series [17] is T6, Intestinal-type alkaline phosphatase (Mus musculus, UniProt P24822). Description: PubChem AID 488875. Type of series: functional.
T6 sequence (P24822 whole entry): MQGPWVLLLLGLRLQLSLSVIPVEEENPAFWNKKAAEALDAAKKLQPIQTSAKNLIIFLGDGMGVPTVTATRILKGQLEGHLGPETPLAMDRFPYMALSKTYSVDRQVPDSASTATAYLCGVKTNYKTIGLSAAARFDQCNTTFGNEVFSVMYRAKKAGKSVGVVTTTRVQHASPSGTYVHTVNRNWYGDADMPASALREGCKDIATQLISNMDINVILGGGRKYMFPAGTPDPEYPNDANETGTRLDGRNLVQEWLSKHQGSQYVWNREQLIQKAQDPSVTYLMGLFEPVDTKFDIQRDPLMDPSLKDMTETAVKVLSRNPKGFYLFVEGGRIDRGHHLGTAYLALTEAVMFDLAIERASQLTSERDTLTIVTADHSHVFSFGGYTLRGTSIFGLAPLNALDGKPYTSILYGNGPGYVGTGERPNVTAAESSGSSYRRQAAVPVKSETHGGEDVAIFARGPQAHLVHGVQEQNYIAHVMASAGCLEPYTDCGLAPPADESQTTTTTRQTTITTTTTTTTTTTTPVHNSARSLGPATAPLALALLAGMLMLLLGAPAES
The target in series [18] is T7, Intestinal-type alkaline phosphatase (Homo sapiens, UniProt P09923). Description: activation of human intestinal alkaline phosphatase – biochemical, luminescent, uHTS hits, set 2, dose response (AID 488817).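 Also: potency of activators that raise enzyme activity.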 In kind it is functional.
T7 sequence (P09923 whole entry): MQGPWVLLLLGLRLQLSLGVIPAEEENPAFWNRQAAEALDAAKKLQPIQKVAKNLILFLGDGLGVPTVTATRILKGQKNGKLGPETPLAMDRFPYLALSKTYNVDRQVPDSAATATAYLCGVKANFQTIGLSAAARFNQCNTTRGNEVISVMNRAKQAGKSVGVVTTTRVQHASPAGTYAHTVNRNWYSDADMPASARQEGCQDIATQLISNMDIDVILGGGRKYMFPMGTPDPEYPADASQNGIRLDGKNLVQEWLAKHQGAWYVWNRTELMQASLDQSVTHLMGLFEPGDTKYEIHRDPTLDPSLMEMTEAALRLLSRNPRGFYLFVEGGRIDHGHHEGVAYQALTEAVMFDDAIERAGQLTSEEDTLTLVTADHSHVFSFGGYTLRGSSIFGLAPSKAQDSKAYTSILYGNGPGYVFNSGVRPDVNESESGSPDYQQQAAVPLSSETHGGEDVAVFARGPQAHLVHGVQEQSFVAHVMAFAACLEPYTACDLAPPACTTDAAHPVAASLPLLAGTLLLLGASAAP
The target in series [19] is T8, Alkaline phosphatase, tissue-nonspecific isozyme (Homo sapiens, UniProt P05186).
T8 sequence (P05186 whole entry): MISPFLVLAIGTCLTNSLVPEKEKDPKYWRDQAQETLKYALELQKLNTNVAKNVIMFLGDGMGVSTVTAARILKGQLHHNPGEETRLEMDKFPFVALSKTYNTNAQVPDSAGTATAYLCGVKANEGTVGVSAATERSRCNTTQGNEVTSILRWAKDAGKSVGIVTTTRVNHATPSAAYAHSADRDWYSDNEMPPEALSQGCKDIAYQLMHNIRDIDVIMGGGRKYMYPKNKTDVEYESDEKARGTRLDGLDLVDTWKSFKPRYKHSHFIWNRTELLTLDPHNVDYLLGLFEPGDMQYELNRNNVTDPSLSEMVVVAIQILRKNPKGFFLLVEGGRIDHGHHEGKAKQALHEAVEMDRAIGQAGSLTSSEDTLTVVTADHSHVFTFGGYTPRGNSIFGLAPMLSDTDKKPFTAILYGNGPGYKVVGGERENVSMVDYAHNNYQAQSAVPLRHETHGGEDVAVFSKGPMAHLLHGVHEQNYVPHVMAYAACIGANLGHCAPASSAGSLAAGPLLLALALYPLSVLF
Description: activation of tissue-nonspecific alkaline phosphatase – biochemical, TNAP isozyme, human IAP uHTS hits, selectivity assay for human IAP activator project, dose response (AID 488886).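 Also: potency of compounds raising TNAP activity as a selectivity check on IAP activators.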 In kind it is functional.

The target in series [20] is T7, Intestinal-type alkaline phosphatase. Description: human intestinal alkaline phosphatase activators, dose response, biochemical, luminescence, uHTS hits (AID 463120). Type of series: functional.
Series [21] concerns the target Nucleotide-binding oligomerization domain-containing protein 1 (Homo sapiens, UniProt Q9Y239). Description: blockers of NOD1 pathway activity – revised, SAR follow-up (AID 2333). In kind it is functional.
The target of series [22] is Tumor necrosis factor (Homo sapiens, UniProt P01375). Description: analog potency on TNFa NF-kB signaling – cell-based, revised, SAR follow-up (AID 2337). Type of series: functional.
Chain of Tumor necrosis factor (P01375 whole entry): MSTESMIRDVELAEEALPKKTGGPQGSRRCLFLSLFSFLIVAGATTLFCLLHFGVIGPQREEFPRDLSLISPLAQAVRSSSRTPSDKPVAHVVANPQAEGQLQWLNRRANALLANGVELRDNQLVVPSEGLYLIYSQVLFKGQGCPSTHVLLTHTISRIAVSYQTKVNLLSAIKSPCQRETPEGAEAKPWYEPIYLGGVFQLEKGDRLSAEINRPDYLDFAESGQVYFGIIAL
Series [23] concerns HEK293. Description: cells. To be noted: Homo sapiens.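 Also: cells exposed to compound for 14 hours overnight before viability readout.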
Series [24] is described as follows: suppression of NO production in INS-1E cells – cell-based, Griess absorbance, dry powder, set 3, dose response (AID 488870). Type of series: functional. As to conditions: Rattus norvegicus.
The target in series [25] is T6, Intestinal-type alkaline phosphatase. Description: PubChem AID 488785. In kind it is functional.
In series [26] the target is T7, Intestinal-type alkaline phosphatase. Description: inhibition of human intestinal alkaline phosphatase – biochemical, dose response (AID 488876). Type of series: functional.
Series [27] deals with Bcl-2-like protein 1 (Homo sapiens, UniProt Q07817). Description: blockers of BCLXL peptide binding – biochemical, fluorescence polarization, 1536-well, selectivity assay for MCL1 inhibitor project, dose response (AID 2218). For orientation: Polarisation of emitted light reports the rotation of a fluorescent probe.
In series [28] the target is T8, Alkaline phosphatase, tissue-nonspecific isozyme. Description: TNAP enzyme inhibition by screening hits, dose response, selectivity assay for mouse IAP inhibitor project, biochemical, human TNAP, uHTS hits (AID 488906). In kind it is functional.
For series [29], the target named is T9, Aminopeptidase N (Plasmodium falciparum FcB1/Columbia, UniProt O96935).
T9 sequence (O96935 whole entry): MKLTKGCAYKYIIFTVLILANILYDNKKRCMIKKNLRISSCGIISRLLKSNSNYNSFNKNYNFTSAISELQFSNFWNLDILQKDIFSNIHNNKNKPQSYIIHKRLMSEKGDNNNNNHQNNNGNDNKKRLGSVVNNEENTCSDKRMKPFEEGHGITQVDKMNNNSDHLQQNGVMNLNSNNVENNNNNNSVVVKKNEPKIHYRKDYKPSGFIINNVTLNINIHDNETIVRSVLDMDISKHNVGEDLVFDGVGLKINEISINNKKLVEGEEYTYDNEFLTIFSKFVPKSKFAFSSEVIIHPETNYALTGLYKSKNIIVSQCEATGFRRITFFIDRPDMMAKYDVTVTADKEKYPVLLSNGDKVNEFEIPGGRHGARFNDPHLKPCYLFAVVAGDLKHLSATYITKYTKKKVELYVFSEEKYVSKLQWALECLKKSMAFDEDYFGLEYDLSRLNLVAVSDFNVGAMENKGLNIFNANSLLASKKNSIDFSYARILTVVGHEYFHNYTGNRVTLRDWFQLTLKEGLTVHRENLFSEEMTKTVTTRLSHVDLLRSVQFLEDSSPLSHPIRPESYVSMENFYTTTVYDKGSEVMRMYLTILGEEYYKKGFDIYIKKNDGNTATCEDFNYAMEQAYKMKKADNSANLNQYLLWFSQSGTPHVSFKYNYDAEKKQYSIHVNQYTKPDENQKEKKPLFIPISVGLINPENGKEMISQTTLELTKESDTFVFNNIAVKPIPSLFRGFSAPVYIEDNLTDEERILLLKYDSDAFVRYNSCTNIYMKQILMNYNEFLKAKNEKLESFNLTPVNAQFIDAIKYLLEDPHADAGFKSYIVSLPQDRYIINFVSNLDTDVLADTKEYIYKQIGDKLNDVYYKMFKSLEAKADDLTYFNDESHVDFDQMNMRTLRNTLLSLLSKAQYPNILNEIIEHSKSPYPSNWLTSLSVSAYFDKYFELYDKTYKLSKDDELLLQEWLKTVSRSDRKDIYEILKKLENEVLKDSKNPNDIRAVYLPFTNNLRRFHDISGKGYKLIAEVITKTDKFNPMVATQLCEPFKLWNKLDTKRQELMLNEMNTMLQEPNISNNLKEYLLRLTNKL
Description: malaria alanyl aminopeptidase activity blockers – biochemical, fluorogenic H-Leu-NHMec substrate, 1536-well (AID 1445). Also on record: species or system Plasmodium falciparum 3D7, 3D7.

For series [30], the target named is Induced myeloid leukemia cell differentiation protein Mcl-1 (Homo sapiens, UniProt Q07820). Description: blockers of MCL1 binding to BIM peptide – biochemical, fluorescence polarization, BIM-BH3 peptide, 1536-well, dose response (AID 2217).
Chain of Induced myeloid leukemia cell differentiation protein Mcl-1 (Q07820 whole entry): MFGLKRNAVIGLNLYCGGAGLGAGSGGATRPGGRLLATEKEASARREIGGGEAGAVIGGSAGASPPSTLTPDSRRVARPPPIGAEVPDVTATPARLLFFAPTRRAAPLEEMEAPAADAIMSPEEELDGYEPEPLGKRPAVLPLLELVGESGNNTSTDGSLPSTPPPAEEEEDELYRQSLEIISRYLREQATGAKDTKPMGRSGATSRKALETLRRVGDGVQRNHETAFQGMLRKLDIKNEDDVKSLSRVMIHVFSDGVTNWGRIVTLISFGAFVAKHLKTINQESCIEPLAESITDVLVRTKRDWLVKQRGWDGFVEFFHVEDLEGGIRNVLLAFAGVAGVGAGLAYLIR

T3 sequence (Q9HC97 whole entry): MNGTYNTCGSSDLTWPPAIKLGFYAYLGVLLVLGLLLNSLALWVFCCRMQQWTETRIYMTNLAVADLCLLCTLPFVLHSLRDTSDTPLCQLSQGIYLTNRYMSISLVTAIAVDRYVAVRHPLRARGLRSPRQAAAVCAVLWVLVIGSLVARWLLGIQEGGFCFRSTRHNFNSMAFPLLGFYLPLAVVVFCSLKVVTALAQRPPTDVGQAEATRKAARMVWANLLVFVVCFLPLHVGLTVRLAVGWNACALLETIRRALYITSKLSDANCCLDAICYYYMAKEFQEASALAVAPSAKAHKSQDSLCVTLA
T1 sequence (P11712 whole entry): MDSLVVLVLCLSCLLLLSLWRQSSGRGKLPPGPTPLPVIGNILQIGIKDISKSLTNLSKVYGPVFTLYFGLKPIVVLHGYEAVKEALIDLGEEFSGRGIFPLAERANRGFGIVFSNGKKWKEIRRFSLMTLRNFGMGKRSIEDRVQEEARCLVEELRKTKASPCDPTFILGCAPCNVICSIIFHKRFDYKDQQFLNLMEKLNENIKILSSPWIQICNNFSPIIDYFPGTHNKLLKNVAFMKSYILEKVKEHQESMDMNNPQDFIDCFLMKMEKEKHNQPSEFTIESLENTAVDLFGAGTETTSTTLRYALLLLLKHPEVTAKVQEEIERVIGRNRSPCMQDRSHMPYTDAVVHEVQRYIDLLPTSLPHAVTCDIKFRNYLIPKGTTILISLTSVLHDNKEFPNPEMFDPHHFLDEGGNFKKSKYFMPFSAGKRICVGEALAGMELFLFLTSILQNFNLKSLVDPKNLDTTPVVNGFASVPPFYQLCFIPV
Chain of Cytochrome P450 2C19 (P33261 whole entry): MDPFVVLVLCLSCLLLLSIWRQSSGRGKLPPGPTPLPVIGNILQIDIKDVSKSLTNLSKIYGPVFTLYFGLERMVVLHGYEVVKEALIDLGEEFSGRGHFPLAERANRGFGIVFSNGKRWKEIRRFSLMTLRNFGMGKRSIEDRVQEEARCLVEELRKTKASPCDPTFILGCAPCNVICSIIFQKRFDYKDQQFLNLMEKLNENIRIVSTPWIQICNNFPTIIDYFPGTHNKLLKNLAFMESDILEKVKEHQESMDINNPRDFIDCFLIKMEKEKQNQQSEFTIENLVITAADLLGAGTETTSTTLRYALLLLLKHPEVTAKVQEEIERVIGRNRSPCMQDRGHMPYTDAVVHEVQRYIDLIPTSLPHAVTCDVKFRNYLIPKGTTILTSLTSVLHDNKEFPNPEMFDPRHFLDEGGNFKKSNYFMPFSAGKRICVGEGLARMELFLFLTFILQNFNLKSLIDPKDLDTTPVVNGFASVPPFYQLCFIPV
Chain of Nucleotide-binding oligomerization domain-containing protein 1 (Q9Y239 whole entry, the tested form may be a part): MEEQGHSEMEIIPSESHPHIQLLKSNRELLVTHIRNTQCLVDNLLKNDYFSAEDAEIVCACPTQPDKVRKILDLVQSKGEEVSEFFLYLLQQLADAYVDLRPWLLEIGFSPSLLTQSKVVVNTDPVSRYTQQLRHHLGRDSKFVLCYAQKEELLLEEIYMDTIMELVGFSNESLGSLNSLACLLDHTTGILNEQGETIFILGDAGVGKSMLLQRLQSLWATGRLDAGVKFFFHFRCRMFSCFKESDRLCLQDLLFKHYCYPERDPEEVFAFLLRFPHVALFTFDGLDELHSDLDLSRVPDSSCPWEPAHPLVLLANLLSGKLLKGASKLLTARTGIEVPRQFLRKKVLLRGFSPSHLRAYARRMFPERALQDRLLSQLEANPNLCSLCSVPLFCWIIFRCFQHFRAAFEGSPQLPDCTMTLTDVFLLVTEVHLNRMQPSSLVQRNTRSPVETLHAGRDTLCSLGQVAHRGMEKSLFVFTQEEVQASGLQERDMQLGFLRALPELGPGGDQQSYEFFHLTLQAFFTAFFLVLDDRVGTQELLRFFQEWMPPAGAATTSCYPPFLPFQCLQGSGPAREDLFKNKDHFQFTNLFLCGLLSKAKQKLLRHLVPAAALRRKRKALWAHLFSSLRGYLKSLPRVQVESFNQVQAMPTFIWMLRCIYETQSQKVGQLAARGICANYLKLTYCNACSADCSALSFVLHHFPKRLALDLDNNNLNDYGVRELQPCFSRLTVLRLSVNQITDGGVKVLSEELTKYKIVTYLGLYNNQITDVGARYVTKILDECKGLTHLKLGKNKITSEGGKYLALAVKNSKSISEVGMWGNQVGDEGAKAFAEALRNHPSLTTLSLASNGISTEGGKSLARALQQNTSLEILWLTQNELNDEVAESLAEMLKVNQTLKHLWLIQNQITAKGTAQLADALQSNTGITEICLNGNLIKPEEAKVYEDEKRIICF

For orientation: AC50 means the midpoint of the concentration-response curve, whichever way the signal moves. For `Cc1ccc(NC(=O)c2nnn(-c3cc(C)cc(C)c3)c2N)cc1`, the AC50 entry in series [1] is “inconclusive”.
Broadly, the IC50 is the concentration at which inhibition is half-maximal. As for `CN1CCN(Cc2ccc(OCc3ccccc3)cc2)CC1`, the IC50 in series [2] was 3.08 µM (active); in [3] it was 1.8 µM (active).
In general, EC50 refers to the midpoint of the concentration-response curve. For the compound `Cc1nc(N2CCN(C(=O)c3ccco3)CC2)c2c3c(sc2n1)CCCC3`, the IC50 in series [4] is > 32 µM (inactive); in series [6], 1.58 µM (active); in series [7] it was > 32 µM (inactive); in [9], > 32 µM (inactive). Also, the EC50 in series [5], in series [8] and in [10] was > 32 µM (inactive) in each case.
In the case of `CC1CCN(CCCCOc2ccc(Cl)cc2)CC1`, in series [11], the EC50 is > 50 µM (active). In series [12], the AC50 was 46.3 µM (active).
With `COC(=O)[C@@]1(Cc2ccc(F)cc2)[C@@H]2[C@@H](CC(=O)[C@H]2CC(=O)C(=O)N2CCCC2)CN1C(=O)c1ccccc1`, the AC50 in series [13] is 39.8 µM (inconclusive); in series [14], “inconclusive”; in [15] it was 15.8 µM (inconclusive).
Turning to `COc1ccccc1NC(=O)c1nc[nH]c1C(=O)Nc1ccccc1OC`, the AC50 result in series [16] is “inconclusive”.
Take `COc1cc(NC(=O)NCC2CCN(Cc3ccccc3C)CC2)cc(OC)c1OC`: the EC50 is 52.6 µM (active) in series [17], 64.7 µM (active) in series [18], 73.9 µM (active) in series [19] and 70 µM (active) in series [20].
As for `O=C(Nc1ccc(OC(F)(F)F)cc1)c1ccc(CN2CCc3ccccc3C2)cc1`, the figures for the IC50 in series [21], in [22] and in [23] were < 0.0391 µM (active), 0.0244 µM (active) and > 20 µM (inactive), respectively.
In the case of `C[C@@H]1CN([C@@H](C)CO)C(=O)c2cccc(NC(=O)Nc3cccc4ccccc34)c2O[C@H]1CN(C)C(=O)Nc1ccc2c(c1)OCO2`, in series [24], the AC50 is 51.5 µM (active).
For `Nc1nnc(CC(=O)N/N=C/c2cc([N+](=O)[O-])cc(Br)c2O)s1`, the IC50 in series [25] is 2.79 µM (active); in series [26] it was > 100 µM (inactive); in series [27], > 109 µM (not active); in [28], 20.6 µM (active); in series [29], 30 µM (active); in series [30], 23.1 µM (not active).
